Measured values published in the supplement of paper PMC4862054.

system: HDQ-P1; assay: normalised viability (% of control), CellTiter-Blue; higher = more viable cells (about 100 = DMSO control); conditions: 10 nM; incubation time: 72 h
Outline: (§1)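 Breast cancer cell lines in 20 µl suspension were seeded onto 384-well plates pre-loaded with compound dissolved in 5 µl medium, then incubated 72 h. CellTiter-Blue reagent (2.5 µl) was added for 2 h at 37 °C and fluorescence read at 560/590 nm. Each plate was normalised to vehicle (100) and a positive kill control (0), with Z'-factor quality control. The value is normalised viability at one listed concentration of the series.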

Compound	normalised viability [%]
C[C@]12CC[C@@H]3c4ccc(O)cc4C[C@@H](CCCCCCCCC[S+]([O-])CCCC(F)(F)C(F)(F)F)[C@H]3[C@@H]1CC[C@@H]2O (stereo partly drawn) [Fulvestrant]	93.3
CN(C)/N=N/c1[nH]cnc1C(N)=O [Dacarbazine]	111
CC(C)Cn1cnc2c(N)nc3ccccc3c21 [Imiquimod]	99.5
C#Cc1cccc(Nc2ncnc3cc(OCCOC)c(OCCOC)cc23)c1 [Erlotinib]	109
O=P1(NCCCl)OCCCN1CCCl (stereo not drawn) [Ifosfamide]	125
Cc1ccc(-n2nc(C(C)(C)C)cc2NC(=O)Nc2ccc(OCCN3CCOCC3)c3ccccc23)cc1 [Doramapimod]	93.8
COc1cc([C@@H]2c3cc4c(cc3[C@@H](O[C@@H]3O[C@@H]5CO[C@@H](C)O[C@H]5[C@H](O)[C@H]3O)[C@H]3COC(=O)[C@H]23)OCO4)cc(OC)c1O [Etoposide]	94.2
CN(N=O)C(=O)N[C@@H](C=O)[C@@H](O)[C@H](O)[C@H](O)CO [Streptozocin]	106

same assay, conditions: 40 nM; incubation time: 72 h

Compound	normalised viability [%]
N[C@@H](CSC(c1ccccc1)(c1ccccc1)c1ccccc1)C(=O)O [S-trityl-L-cysteine]	94.1

system: Hs578T; assay: as above; conditions: 10 nM; incubation time: 72 h
Outline: as §1

Compound	normalised viability [%]
Cn1c(Nc2ccc(C(F)(F)F)cc2)nc2cc(Oc3ccnc(-c4ncc(C(F)(F)F)[nH]4)c3)ccc21 [RAF265]	89.7
Cc1ccc(C(=O)N(CCCN)[C@@H](c2oc3cc(Cl)ccc3c(=O)c2Cc2ccccc2)C(C)C)cc1	19.5

same assay, conditions: 100 nM; incubation time: 72 h

Compound	normalised viability [%]
CNCc1ccc(-c2[nH]c3cc(F)cc4c3c2CCNC4=O)cc1 [Rucaparib]	75.2
C[C@]12CC[C@@H]3c4ccc(O)cc4C[C@@H](CCCCCCCCC[S+]([O-])CCCC(F)(F)C(F)(F)F)[C@H]3[C@@H]1CC[C@@H]2O (stereo partly drawn) [Fulvestrant]	85.5
CN(C)/N=N/c1[nH]cnc1C(N)=O [Dacarbazine]	106
CC(C)Cn1cnc2c(N)nc3ccccc3c21 [Imiquimod]	98.1
C#Cc1cccc(Nc2ncnc3cc(OCCOC)c(OCCOC)cc23)c1 [Erlotinib]	85.4
O=P1(NCCCl)OCCCN1CCCl (stereo not drawn) [Ifosfamide]	94.9
Cc1ccc(-n2nc(C(C)(C)C)cc2NC(=O)Nc2ccc(OCCN3CCOCC3)c3ccccc23)cc1 [Doramapimod]	78
COc1cc([C@@H]2c3cc4c(cc3[C@@H](O[C@@H]3O[C@@H]5CO[C@@H](C)O[C@H]5[C@H](O)[C@H]3O)[C@H]3COC(=O)[C@H]23)OCO4)cc(OC)c1O [Etoposide]	84.3
CN(N=O)C(=O)N[C@@H](C=O)[C@@H](O)[C@H](O)[C@H](O)CO [Streptozocin]	102

same assay, conditions: 400 nM; incubation time: 72 h

Compound	normalised viability [%]
N[C@@H](CSC(c1ccccc1)(c1ccccc1)c1ccccc1)C(=O)O [S-trityl-L-cysteine]	92.2

system: MDA-MB-231; assay: as above; conditions: 10 nM; incubation time: 72 h
Outline: as §1

Compound	normalised viability [%]
Cn1c(Nc2ccc(C(F)(F)F)cc2)nc2cc(Oc3ccnc(-c4ncc(C(F)(F)F)[nH]4)c3)ccc21 [RAF265]	100
Cc1ccc(C(=O)N(CCCN)[C@@H](c2oc3cc(Cl)ccc3c(=O)c2Cc2ccccc2)C(C)C)cc1	27.6

same assay, conditions: 100 nM; incubation time: 72 h

Compound	normalised viability [%]
CNCc1ccc(-c2[nH]c3cc(F)cc4c3c2CCNC4=O)cc1 [Rucaparib]	98
C[C@]12CC[C@@H]3c4ccc(O)cc4C[C@@H](CCCCCCCCC[S+]([O-])CCCC(F)(F)C(F)(F)F)[C@H]3[C@@H]1CC[C@@H]2O (stereo partly drawn) [Fulvestrant]	79.9
CN(C)/N=N/c1[nH]cnc1C(N)=O [Dacarbazine]	93.1
CC(C)Cn1cnc2c(N)nc3ccccc3c21 [Imiquimod]	87.4
C#Cc1cccc(Nc2ncnc3cc(OCCOC)c(OCCOC)cc23)c1 [Erlotinib]	96.6
O=P1(NCCCl)OCCCN1CCCl (stereo not drawn) [Ifosfamide]	108
Cc1ccc(-n2nc(C(C)(C)C)cc2NC(=O)Nc2ccc(OCCN3CCOCC3)c3ccccc23)cc1 [Doramapimod]	92.5
COc1cc([C@@H]2c3cc4c(cc3[C@@H](O[C@@H]3O[C@@H]5CO[C@@H](C)O[C@H]5[C@H](O)[C@H]3O)[C@H]3COC(=O)[C@H]23)OCO4)cc(OC)c1O [Etoposide]	96.6
CN(N=O)C(=O)N[C@@H](C=O)[C@@H](O)[C@H](O)[C@H](O)CO [Streptozocin]	101

same assay, conditions: 400 nM; incubation time: 72 h

Compound	normalised viability [%]
N[C@@H](CSC(c1ccccc1)(c1ccccc1)c1ccccc1)C(=O)O [S-trityl-L-cysteine]	91.7

system: MDA-MB-436; assay: as above; conditions: 10 nM; incubation time: 72 h
Outline: as §1

Compound	normalised viability [%]
Cn1c(Nc2ccc(C(F)(F)F)cc2)nc2cc(Oc3ccnc(-c4ncc(C(F)(F)F)[nH]4)c3)ccc21 [RAF265]	98.9
Cc1ccc(C(=O)N(CCCN)[C@@H](c2oc3cc(Cl)ccc3c(=O)c2Cc2ccccc2)C(C)C)cc1	55.9

same assay, conditions: 100 nM; incubation time: 72 h

Compound	normalised viability [%]
CNCc1ccc(-c2[nH]c3cc(F)cc4c3c2CCNC4=O)cc1 [Rucaparib]	129
C[C@]12CC[C@@H]3c4ccc(O)cc4C[C@@H](CCCCCCCCC[S+]([O-])CCCC(F)(F)C(F)(F)F)[C@H]3[C@@H]1CC[C@@H]2O (stereo partly drawn) [Fulvestrant]	103
CN(C)/N=N/c1[nH]cnc1C(N)=O [Dacarbazine]	86.8
CC(C)Cn1cnc2c(N)nc3ccccc3c21 [Imiquimod]	85.6
C#Cc1cccc(Nc2ncnc3cc(OCCOC)c(OCCOC)cc23)c1 [Erlotinib]	109
O=P1(NCCCl)OCCCN1CCCl (stereo not drawn) [Ifosfamide]	95.3
Cc1ccc(-n2nc(C(C)(C)C)cc2NC(=O)Nc2ccc(OCCN3CCOCC3)c3ccccc23)cc1 [Doramapimod]	86
COc1cc([C@@H]2c3cc4c(cc3[C@@H](O[C@@H]3O[C@@H]5CO[C@@H](C)O[C@H]5[C@H](O)[C@H]3O)[C@H]3COC(=O)[C@H]23)OCO4)cc(OC)c1O [Etoposide]	97.6
